Experiments:
[1] = biological target: T1, cloned human μ opioid receptor (Homo sapiens, UniProt P35372); test: [3H]diprenorphine receptor binding, μ opioid receptor; conditions: [3H]diprenorphine displacement; read-out: affinity (expressed as Ki value), μ opioid receptor
T1 construct: expressed in transfected cells
Description: (§1) The potencies of the compounds were determined by testing the ability of a range of concentrations of each compound to inhibit the binding of the non-selective opioid antagonist, [^3H]diprenorphine, to the cloned human μ, κ, and δ opioid receptors, expressed in separate cell lines. IC50 values were obtained by nonlinear analysis of the data using GraphPad Prism version 3.00 for Windows (GraphPad Software, San Diego). Ki values were obtained by Cheng-Prusoff corrections of IC50 values.
(§2) The receptor binding method (DeHaven and DeHaven-Hudkins, 1998) was a modification of the method of Raynor et al. (1994). […] The filters were rinsed 4 times with 1 mL of cold 50 mM Tris HCl, pH 7.8 and radioactivity remaining on the filters determined by scintillation spectroscopy. Nonspecific binding was determined by the minimum values of the titration curves and was confirmed by separate assay wells containing 10 μM naloxone. Ki values were determined by Cheng-Prusoff corrections of IC50 values derived from nonlinear regression fits of 12 point titration curves using GraphPad Prism® version 3.00 for Windows (GraphPad Software, San Diego, Calif.).
(§3) To determine the equilibrium dissociation constant for the inhibitors (Ki), radioligand bound (cpm) in the presence of various concentrations of test compounds was measured. […]

[2] = biological target: T2, cloned human δ opioid receptor (Homo sapiens, UniProt P41143); test: [3H]diprenorphine receptor binding, δ opioid receptor; conditions: [3H]diprenorphine displacement; read-out: affinity (expressed as Ki value), δ opioid receptor
T2 construct: expressed in transfected cells
T2 sequence (P41143 whole entry): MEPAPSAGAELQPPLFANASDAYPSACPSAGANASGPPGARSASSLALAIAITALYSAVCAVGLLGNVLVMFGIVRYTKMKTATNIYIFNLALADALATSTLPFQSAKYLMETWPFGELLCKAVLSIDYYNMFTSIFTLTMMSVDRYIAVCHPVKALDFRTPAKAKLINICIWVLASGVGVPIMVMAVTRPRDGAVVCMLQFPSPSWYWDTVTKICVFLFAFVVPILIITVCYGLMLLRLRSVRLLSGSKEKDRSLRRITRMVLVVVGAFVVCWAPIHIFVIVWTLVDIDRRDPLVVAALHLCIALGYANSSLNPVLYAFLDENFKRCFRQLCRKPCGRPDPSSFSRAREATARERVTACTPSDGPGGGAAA
Description: as §1, §2, §3

[3] = biological target: T1, cloned human μ opioid receptor; test: inhibition of agonist (loperamide)-stimulated [35S]GTPγS binding; format: biochemical; conditions: receptor not given; mu opioid receptor from context; read-out: in vitro antagonist activity (IC50)
Description: The potencies of the antagonists were assessed by their abilities to inhibit agonist-stimulated [^35S]GTPγS binding to membranes containing the cloned human μ, κ, or δ opioid receptors. The agonists used were loperamide for the μ opioid receptor, U50488H for the κ opioid receptor, and BW373U86 for the δ opioid receptor.
To determine the IC50 value, which was the concentration to give half-maximal inhibition of agonist-stimulated [^35S]GTPγS binding, the amount of [^35S]GTPγS bound in the presence of a fixed concentration of agonist and various concentrations of antagonist was measured. The fixed concentration of agonist was the EC80 for the agonist, which was the concentration to give 80% of the relative maximum stimulation of [^35S]GTPγS binding. The IC50 value was determined from a best nonlinear regression fit of the data to the following equation,
where Y is the amount of [^35S]GTPγS bound at each concentration of antagonist, Bottom is the calculated amount of [^35S]GTPγS bound in the presence of an infinite concentration of antagonist, Top is the calculated amount of [^35S]GTPγS bound in the absence of added antagonist, X is the logarithm of the concentration of antagonist, and Log IC50 is the logarithm of the concentration of antagonist where the amount of [^35S]GTPγS bound is halfway between Bottom and Top. […]

[4] = system: Mouse Gastrointestinal Transit (GIT); test: Mouse Gastrointestinal Transit (GIT) Assay; format: in vivo; conditions: 10 mg/kg p.o., morphine 3 mg/kg s.c.
Description: Male Swiss-Webster mice (25-30 g) obtained from Ace Animals (Boyertown, Pa.) were used for all experiments. Mice were housed 4/cage in polycarbonate cages with food and water available ad libitum. Mice were on a 12 hours light:dark schedule with lights on at 6:30 a.m. All experiments were performed during the light cycle. Mice were fasted the night before the experiment, with water available ad libitum.
Mice were administered vehicle (10% DMSO:20% Cremophor EL:70% saline) or test compound (10 mg/kg) orally 2 or 6 hours before determination of GIT. Compounds were administered in a volume of 0.1 ml/10 g of body weight. Morphine (3 mg/kg) or vehicle (0.9% saline) was administered s.c. 35 min prior to determination of GIT. Ten minutes after the morphine treatment, mice were administered 0.2 ml of a charcoal meal orally. The charcoal meal consisted of a slurry of charcoal, flour, and water in the following ratio (1:2:8, w:w:v). Twenty-five minutes after receiving the charcoal meal, the mice were euthanized with CO2 and GIT determined.
GIT is expressed as the % GIT by the following formula:
[formula] For each compound a % Antagonism (% A) value was determined for the 2 and 6 hr antagonist pretreatment. Using the mean % GIT for each treatment group, % A was calculated using the following formula: […]

[5] = biological target: T3, cloned human κ opioid receptor (Homo sapiens, UniProt P41145); test: [3H]diprenorphine receptor binding, κ opioid receptor; conditions: [3H]diprenorphine displacement; read-out: affinity (expressed as Ki value), κ opioid receptor
T3 construct: expressed in transfected cells
T3 sequence (P41145 whole entry): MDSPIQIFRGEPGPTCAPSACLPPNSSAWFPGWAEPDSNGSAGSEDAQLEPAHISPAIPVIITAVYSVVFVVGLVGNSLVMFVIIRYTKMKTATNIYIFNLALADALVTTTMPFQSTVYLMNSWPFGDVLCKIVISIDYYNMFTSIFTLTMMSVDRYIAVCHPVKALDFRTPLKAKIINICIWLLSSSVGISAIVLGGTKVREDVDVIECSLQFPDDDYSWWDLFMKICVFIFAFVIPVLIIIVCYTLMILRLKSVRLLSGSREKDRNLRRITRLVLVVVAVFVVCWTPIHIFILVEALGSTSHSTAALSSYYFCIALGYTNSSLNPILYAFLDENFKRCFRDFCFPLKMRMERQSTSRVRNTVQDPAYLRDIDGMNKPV
Description: as §1, §2, §3

T1 sequence (P35372 whole entry): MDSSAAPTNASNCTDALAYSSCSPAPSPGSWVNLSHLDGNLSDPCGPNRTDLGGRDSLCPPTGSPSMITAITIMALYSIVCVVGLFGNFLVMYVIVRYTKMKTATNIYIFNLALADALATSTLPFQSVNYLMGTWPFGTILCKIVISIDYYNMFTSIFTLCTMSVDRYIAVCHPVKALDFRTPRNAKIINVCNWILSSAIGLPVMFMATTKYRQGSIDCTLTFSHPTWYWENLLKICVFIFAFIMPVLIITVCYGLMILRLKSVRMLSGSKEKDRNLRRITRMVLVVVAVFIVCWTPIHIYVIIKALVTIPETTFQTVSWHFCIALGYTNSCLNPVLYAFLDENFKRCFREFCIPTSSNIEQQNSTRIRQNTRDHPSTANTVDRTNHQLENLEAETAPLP

SMILES	Ki [1] [nM]	Ki [2] [nM]	IC50 [3] [nM]	% antagonism ([4]; 2 h pretreatment) [%]	% antagonism ([4]; 6 h pretreatment) [%]	Ki [5] [nM]
C[C@H]1CN(CC(Cc2ccccc2)C(=O)NCC(=O)O)CC[C@@]1(C)c1cccc(C(=O)O)c1 (stereo in doubt) [Example 28, [[2(R)-[[4(R)-(3-carboxyphenyl)-3(R),4-dimethyl-1-piperidin-yl]methyl]-1-oxo-3-phenylpropyl]amino]acetic Acid]	19	1330	3.4	86	71	–
C[C@H]1CN(C[C@H](Cc2ccccc2)C(=O)NCC(=O)O)CC[C@@]1(C)c1cccc(C(N)=O)c1 [Example 58, [[2(R)-[[4(R)-(3-amidophenyl)-3(R),4-dimethyl-1-piperidinyl]methyl]-1-oxo-3-phenylpropyl]amino]acetic Acid]	2.6	85	3	92	61	1080
